This note sets out measurements from ChEMBL document CHEMBL3045381, “Antiproliferative activity of pentadeca-(8E, 13Z) dien-11-yn-2-one and (E)-1,8-pentadecadiene from Echinacea pallida (Nutt.) Nutt. roots” (Med Chem Res, 2013).

Holding throughout (format): functional, cell-based
The test system of assay [1] is HeLa. The assay is described as follows: Antiproliferative activity against Homo sapiens (human) HeLa cells at 5 to 40 ug/ml after 24 hr by BRdU incorporation assay.
In assay [2] the test system is C6. The assay is described as follows: Antiproliferative activity against Rattus norvegicus (rat) C6 cells at 5 to 75 ug/ml after 24 hr by BRdU incorporation assay.
For assay [3], the system named is C6. The assay is described as follows: Antiproliferative activity against Rattus norvegicus (rat) C6 cells at 5 to 100 ug/ml after 24 hr by BRdU incorporation assay.
Assay [4] concerns HeLa. Description: Antiproliferative activity against Homo sapiens (human) HeLa cells at 5 to 100 ug/ml after 24 hr by BRdU incorporation assay.

Calls of active or inactive are those of the source. No cut-off for these calls is given here.

Turning to `C/C=C\C#CC/C=C\CCCCCC(C)=O`, the result in the assay with HeLa [1] and with C6 [2] was Active.
As for `C=CCCCCC/C=C/CCCCCC`, the outcome with C6 [3] and in the assay with HeLa [4] was inactive.
